Counter-ions that a name gives are not always drawn.
Test system: H. pylori PMSS1 WT
Test: Ligand competition tracking (chemotaxis) assay
Format: cell-based, Helicobacter pylori
Details: 10 mM each; added before or after the chemoattractant
Experimental: Consequently, we tested whether glucosamine affected H. pylori chemotaxis by developing a ligand competition tracking assay between non-chemotaxis-active and chemotaxis-active TlpA ligands. This assay is a modified version of our live-cell video microscopy assay where the addition of a chemotaxis-active ligand is followed by the addition of a non-chemotaxis-active ligand 10 s later and vice versa. […] This response was decreased regardless of whether glucosamine was added before or after the addition of the chemoattractant.
FIG 7 Ligand competition tracking experiment between chemoactive and nonchemoactive TlpA ligands. Cultures of the H. pylori PMSS1 WT were grown in BB10 overnight and then back-diluted as described in the legend of Fig. 1. Cultures were mock treated or treated with various concentrations of compounds as indicated. The pH of the cysteine stock was adjusted using NaOH to match the pH of the water used for the untreated control. The cells were immediately filmed, and direction changes were counted over a 3-s swimming period in at least 100 cells per treatment from 3 biological replicates. Repellents increase direction changes, as exemplified by the control repellent HCl, while attractants decrease direction changes, as exemplified by the control attractant dipyridyl. Data are normalized to the values for the untreated control for each strain, as described in Materials and Methods. […]
Swimming behavior assays were done with H. pylori PMSS1 strains grown in BB10 as described above. […] The pH of BB10 upon treatment was independently assessed using a Denver Instruments pH meter. […] For each sample, >100 3-s-long bacterial tracks from three independent cultures were analyzed manually to identify stops followed by direction changes. Data for all biological replicates under each condition were combined, and the average number of direction changes in 3 s and the standard error of the mean were calculated. […]

Question: What does the source list for `N[C@H]1C(O)O[C@H](CO)[C@@H](O)[C@@H]1O` (stereo partly drawn) [Glucosamine, D(+)-glucosamine hydrochloride]?
Answer: Effect on chemoattractant response to arginine: prevented the chemoattractant response; Effect on chemoattractant response to cysteine: severely blunted the response; Effect on chemoattractant response to fumarate: prevented the chemoattractant response

Source: publication PMC8406319, “The dCache Chemoreceptor TlpA of Helicobacter pylori Binds Multiple Attractant and Antagonistic Ligands via Distinct Sites” (mBio, 2021)
